Legend:
Type in all cases: cell-based
[1] = system: A549 (human lung cancer cells); experiment: MTT in vitro anti-tumor activity test, A549; conditions: MTT, 72 h; for A549 IC50: A549 human lung cancer cells
[2] = system: Colo205 (human colon cancer cells); experiment: MTT in vitro anti-tumor activity test, Colo205; conditions: MTT, 72 h; for Colo205 IC50: Colo205 human colon cancer cells
[3] = system: HepG2 (human hepatoma cells); experiment: MTT in vitro anti-tumor activity test, HepG2; conditions: MTT, 72 h; for HepG2 IC50: HepG2 human hepatoma cells
[4] = system: MDA-MB-435 (human breast cancer cells); experiment: MTT in vitro anti-tumor activity test, MDA-MB-435; conditions: MTT, 72 h; for MDA-MB-435 IC50: MDA-MB-435 human breast cancer cells

Row | A549 IC50 [1] [µg/mL] | Colo205 IC50 [2] [µg/mL] | HepG2 IC50 [3] [µg/mL] | MDA-MB-435 IC50 [4] [µg/mL] | Structure (SMILES) | A549 100 μg/mL IC % [1] [%] | Colo205 100 μg/mL IC % [2] [%] | HepG2 100 μg/mL IC % [3] [%] | MDA-MB-435 100 μg/mL IC % [4] [%]
1 | 2.91 | 3.49 | 3.48 | 4.09 | COc1ccc2c(c1)C(=O)c1c-2c(OCCCN(C)C)nc2ccc(OC)cc12 [Compound 16] | 100 | 100 | 100 | 100
2 | 18.26 | 6.70 | 10.31 | 4.98 | COc1ccc2c(c1)-c1c(OCCN(C)C)nc3ccc(OC)cc3c1C2=O [Compound 17] | 85.30 | 100 | 100 | 100
3 | >100 | >100 | >100 | 24.86 | COc1ccc2nc(OCCN3CCCC3)c3c(c2c1)C(=O)c1cc(Br)ccc1-3 [Compound 18] | 35.69 | 43.88 | 35.48 | 67.72
4 | >100 | 18.70 | >100 | 42.24 | COc1ccc2nc(OCCn3ccnc3)c3c(c2c1)C(=O)c1cc(Br)ccc1-3 [Compound 19] | 17.66 | 80.89 | 37.50 | 59.37
5 | 1.68 | 2.56 | 0.700 | 1.17 | CCN(CC)CCOc1nc2cc(OC)c(OC)cc2c2c1-c1ccc(OC)cc1C2=O [Compound 21] | 100 | 88.97 | 93.16 | 93.41
6 | 1.43 | 1.30 | 8.61 | 1.85 | COc1ccc2c(c1)C(=O)c1c-2c(OCCN2CCCC2)nc2cc(OC)c(OC)cc12 [Compound 22] | 97.05 | 93.84 | 81.69 | 100
7 | 10.32 | 5.15 | 10.78 | 8.92 | COc1ccc2c(c1)C(=O)c1c-2c(OCCN2CCCCC2)nc2cc(OC)c(OC)cc12 [Compound 24] | 93.92 | 98.38 | 98.55 | 90.85
8 | 2.02 | 1.15 | 1.58 | 2.66 | COc1ccc2c(c1)C(=O)c1c-2c(OCCCN(C)C)nc2cc(OC)c(OC)cc12 [Compound 25] | 100 | 90.36 | 89.70 | 85.38
9 | 6.89 | 1.45 | 11.27 | 10.51 | COc1cc2nc(OCCN(C)C)c3c(c2cc1OC)C(=O)c1cc(Cl)ccc1-3 [Compound 26] | 100 | 100 | 97.91 | 100
10 | >100 | 25.50 | 56.61 | 91.52 | COc1cc2nc(OCCn3ccnc3)c3c(c2cc1OC)C(=O)c1cc(Cl)ccc1-3 [Compound 27] | 35.12 | 66.27 | 57.51 | 51.23
11 | 1.04 | 1.47 | 3.71 | 1.45 | COc1cc2nc(OCCCN(C)C)c3c(c2cc1OC)C(=O)c1cc(Cl)ccc1-3 [Compound 29] | 100 | 98.69 | 91.20 | 100
12 | >100 | >100 | >100 | >100 | COc1ccc2c(c1)C(=O)c1c-2c(OCCBr)nc2ccccc12 [Compound 30] | 19.48 | 21.11 | 0 | 31.90

The next lines start with the molecule.

Row | Structure (SMILES) | A549 IC50 [1] [µg/mL] | Colo205 IC50 [2] [µg/mL] | HepG2 IC50 [3] [µg/mL] | MDA-MB-435 IC50 [4] [µg/mL] | A549 100 μg/mL IC % [1] [%] | Colo205 100 μg/mL IC % [2] [%] | HepG2 100 μg/mL IC % [3] [%] | MDA-MB-435 100 μg/mL IC % [4] [%]
13 | CCN(CC)CCOc1nc2ccccc2c2c1-c1ccc(OC)cc1C2=O [Compound 2] | 1.53 | 0.427 | 2.50 | 1.99 | 100 | 100 | 100 | 100
14 | COc1ccc2c(c1)C(=O)c1c-2c(OCCN2CCCC2)nc2ccccc12 [Compound 3] | 14.39 | 10.97 | 24.99 | 26.55 | 99.90 | 92.33 | 80.79 | 100
15 | COc1ccc2c(c1)C(=O)c1c-2c(OCCn2ccnc2)nc2ccccc12 [Compound 4] | 16.61 | 13.51 | >100 | >100 | 78.34 | 60.32 | 34.87 | 48.21
16 | COc1ccc2c(c1)C(=O)c1c-2c(OCCN2CCOCC2)nc2ccccc12 [Compound 5] | >100 | >100 | >100 | >100 | 48.72 | 43.88 | 13.97 | 19.75
17 | CN(C)CCOc1nc2ccccc2c2c1-c1ccc(Cl)cc1C2=O [Compound 7] | 15.12 | 6.46 | 22.95 | 4.91 | 90.29 | 100 | 100 | 100
18 | CCN(CC)CCOc1nc2ccccc2c2c1-c1ccc(Cl)cc1C2=O [Compound 8] | 28.56 | 15.16 | 28.84 | 31.62 | 84.24 | 99.01 | 73.57 | 100
19 | O=C1c2cc(Cl)ccc2-c2c(OCCN3CCCC3)nc3ccccc3c21 [Compound 9] | 5.78 | 7.10 | 15.99 | 12.28 | 100 | 71.11 | 82.92 | 100
20 | O=C1c2cc(Cl)ccc2-c2c(OCCn3ccnc3)nc3ccccc3c21 [Compound 10] | 14.48 | 31.06 | 34.93 | 15.02 | 97.57 | 80.16 | 92.06 | 99.70
21 | O=C1c2cc(Cl)ccc2-c2c(OCCN3CCCCC3)nc3ccccc3c21 [Compound 11] | 32.73 | 39.33 | 55.62 | 44.76 | 69.84 | 69.24 | 63.27 | 69.43
22 | CN(C)CCCOc1nc2ccccc2c2c1-c1ccc(Cl)cc1C2=O [Compound 12] | 3.04 | 1.16 | 3.19 | 0.585 | 88.18 | 100 | 100 | 100
23 | COc1ccc2c(c1)C(=O)c1c-2c(OCCN(C)C)nc2ccc(OC)cc12 [Compound 13] | 17.27 | 1.79 | 2.47 | 4.34 | 100 | 96.52 | 100 | 100
24 | COc1ccc2c(c1)C(=O)c1c-2c(OCCN2CCCCC2)nc2ccc(OC)cc12 [Compound 15] | 6.95 | 3.13 | 5.02 | 6.88 | 100 | 100 | 100 | 99.08

Source: patent publication US9181193B2, “Indenoquinolone compound, preparation method and use thereof” (Second Military Medical University, PLA, priority 2010, dated 2015)
